Experimental data from PubChem BioAssay AID330 (DTP/NCI, 2004).
Values joined by “and” are separate entries in the source; they are usually repeats but may differ in a detail not shown here. Equal values may be shown once. Toxic doses and inconclusive results are not listed.

System: P388 leukemia ip, CD2F1 mice, survival T/C
Test: NCI In Vivo Anticancer Drug Screen. Data for tumor model P388 Leukemia (intraperitoneal) in CD2F1 (CDF1) mice
Settings: endpoint: median survival time, higher = longer survival
How it was run: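 Mice carrying the transplanted tumor received test compound or vehicle. Survival was recorded in each group, and the value is the treated-group measurement divided by that of the vehicle-treated control group.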

[1] = dose: 50.0 mg/kg/injection, schedule: Q01DX005 (ip), vehicle: Klucel (hydroxypropylcellulose) (HPC)
[2] = dose: 100.0 mg/kg/injection, schedule: Q01DX005 (ip), vehicle: Klucel (hydroxypropylcellulose) (HPC)
[3] = dose: 200.0 mg/kg/injection, schedule: Q01DX005 (ip), vehicle: Klucel (hydroxypropylcellulose) (HPC)
[4] = dose: 50.0 mg/kg/injection, schedule: Q01DX009 (ip), vehicle: saline
[5] = dose: 100.0 mg/kg/injection, schedule: Q01DX009 (ip), vehicle: saline
[6] = dose: 200.0 mg/kg/injection, schedule: Q01DX009 (ip), vehicle: saline
[7] = dose: 50.0 mg/kg/injection, schedule: Q01DX005 (ip), vehicle: saline with Tween-80
[8] = dose: 100.0 mg/kg/injection, schedule: Q01DX005 (ip), vehicle: saline with Tween-80
[9] = dose: 200.0 mg/kg/injection, schedule: Q01DX005 (ip), vehicle: saline with Tween-80
[10] = dose: 50.0 mg/kg/injection, schedule: Q01DX009 (ip), vehicle: saline with Tween-80
[11] = dose: 100.0 mg/kg/injection, schedule: Q01DX009 (ip), vehicle: saline with Tween-80

With Cc1ccc2c(=O)c3ccccc3c3c2c1c1c(C)ccc2c(=O)c4ccccc4c3c21 the T/C [1] was 108 % of control, the T/C [2] was 102 % of control and the T/C [3] was 107 % of control.

With N#CCCNc1ccc(F)cc1 the T/C [4] was 100 % of control, the T/C [5] was 109 % of control and the T/C [6] was 104 % of control.

With CNC(=O)Nc1nc2ccc([N+](=O)[O-])cc2[nH]1 the T/C (dose: 200.0 mg/kg/injection, schedule: Q04DX003 (oral), vehicle: saline with Tween-80) was 110 % of control, the T/C (dose: 400.0 mg/kg/injection, schedule: Q04DX003 (oral), vehicle: saline with Tween-80) was 112 % of control and the T/C (dose: 800.0 mg/kg/injection, schedule: Q04DX003 (oral), vehicle: saline with Tween-80) was 116 % of control and 121 % of control.

For CCOc1ccc(-n2c(C)c(COC(=O)NC)c(COC(=O)NC)c2C)cc1, the T/C (dose: 12.5 mg/kg/injection, schedule: Q01DX009 (ip), vehicle: Klucel (hydroxypropylcellulose) (HPC)) was 152 % of control and 166 % of control, the T/C (dose: 25.0 mg/kg/injection, schedule: Q01DX009 (ip), vehicle: Klucel (hydroxypropylcellulose) (HPC)) was 150 % of control and the T/C (dose: 50.0 mg/kg/injection, schedule: Q01DX009 (ip), vehicle: Klucel (hydroxypropylcellulose) (HPC)) was 109 % of control.

For O=C(O)CNc1ncnc2c1CCc1ccccc1-2, the T/C (dose: 100.0 mg/kg/injection, schedule: Q04DX002 (ip), vehicle: saline) was 100 % of control, the T/C (dose: 200.0 mg/kg/injection, schedule: Q04DX002 (ip), vehicle: saline) was 99 % of control and the T/C (dose: 400.0 mg/kg/injection, schedule: Q04DX002 (ip), vehicle: saline) was 91 % of control.

CCCCCN(CCCCC)CC(=O)O[C@H]1C[C@H]2CC[C@@]1(C)C2(C)C was tested, and the T/C [7] was 103 % of control, the T/C [8] was 105 % of control and the T/C [9] was 107 % of control.

For CCCCCCCCCCCCSC1COC2C(SCCCCCCCCCCCC)COC12 (stereo not given), the T/C [7] was 100 % of control, the T/C [8] was 96 % of control and the T/C [9] was 99 % of control.

In the case of NC(=O)c1ncn(C2OC(CO)C(O)C2O)c1N (stereo not given), the T/C [4] is reported as 106 % of control and 109 % of control, the T/C [5] is reported as 98 % of control and 95 % of control and the T/C [6] is reported as 103 % of control and 108 % of control. The T/C (dose: 400.0 mg/kg/injection, schedule: Q01DX009 (ip), vehicle: saline) was 107 % of control and 87 % of control.

With O=C(N/N=C\C12CC3CC(CC(C3)C1)C2)c1ccncc1 the T/C [10] was 96 % of control and the T/C [11] was 90 % of control.

For COc1ccc(C2=C(Cl)C(=O)N(c3ccc(O)cc3)C(=O)C2(Cl)Cl)cc1, the T/C (dose: 100.0 mg/kg/injection, schedule: Q04DX002 (ip), vehicle: Klucel (hydroxypropylcellulose) (HPC)) was 106 % of control, the T/C (dose: 200.0 mg/kg/injection, schedule: Q04DX002 (ip), vehicle: Klucel (hydroxypropylcellulose) (HPC)) was 107 % of control and the T/C (dose: 400.0 mg/kg/injection, schedule: Q04DX002 (ip), vehicle: Klucel (hydroxypropylcellulose) (HPC)) was 116 % of control.

With CCCCCCCCCCCCCC[N+]1(CC)CCOCC1 the T/C (dose: 3.12 mg/kg/injection, schedule: Q01DX009 (ip), vehicle: saline) was 119 % of control, the T/C (dose: 6.25 mg/kg/injection, schedule: Q01DX009 (ip), vehicle: saline) was 115 % of control and the T/C (dose: 12.5 mg/kg/injection, schedule: Q01DX009 (ip), vehicle: saline) was 123 % of control.

In the case of O=C(N/C(=C\c1ccccc1)C(=O)N1CCN(Cc2ccccc2)CC1)c1ccccc1, the T/C [7] is reported as 89 % of control and the T/C [8] is reported as 88 % of control.

CCN(CC)CN1C(=O)C2C3C=CC(C2C1=O)C1C2C(=O)N(CN(CC)CC)C(=O)C2C31 (stereo not given) was tested, and the T/C (dose: 25.0 mg/kg/injection, schedule: Q01DX009 (ip), vehicle: saline with Tween-80) was 103 % of control, the T/C [10] was 102 % of control and 111 % of control and the T/C [11] was 116 % of control and 117 % of control and 119 % of control. The T/C (dose: 200.0 mg/kg/injection, schedule: Q01DX009 (ip), vehicle: saline with Tween-80) was 119 % of control and the T/C (dose: 400.0 mg/kg/injection, schedule: Q01DX009 (ip), vehicle: saline with Tween-80) was 111 % of control.

With Cc1ccc(SCc2c(COc3ccc(Cl)cc3)sc3ccc(Cl)cc23)cc1 the T/C (dose: 100.0 mg/kg/injection, schedule: Q01DX001 (ip), vehicle: saline with Tween-80) was 90 % of control, the T/C (dose: 200.0 mg/kg/injection, schedule: Q01DX001 (ip), vehicle: saline with Tween-80) was 86 % of control and the T/C (dose: 400.0 mg/kg/injection, schedule: Q01DX001 (ip), vehicle: saline with Tween-80) was 100 % of control.

COc1ccc(C(=NCCc2ccccc2)c2ccccc2)c(O)c1 was tested, and the T/C (dose: 100.0 mg/kg/injection, schedule: Q04DX002 (ip), vehicle: saline with Tween-80) was 100 % of control, the T/C (dose: 200.0 mg/kg/injection, schedule: Q04DX002 (ip), vehicle: saline with Tween-80) was 98 % of control and the T/C (dose: 400.0 mg/kg/injection, schedule: Q04DX002 (ip), vehicle: saline with Tween-80) was 100 % of control.

With CCCCN(CCCC)/C(N)=N/O the T/C (dose: 20.0 mg/kg/injection, schedule: Q01DX009 (ip), vehicle: saline with Tween-80) was 92 % of control, the T/C (dose: 40.0 mg/kg/injection, schedule: Q01DX009 (ip), vehicle: saline with Tween-80) was 100 % of control and the T/C (dose: 80.0 mg/kg/injection, schedule: Q01DX009 (ip), vehicle: saline with Tween-80) was 107 % of control.

In the case of CN1c2ccccc2S(=O)(=O)n2c(COc3ccccc3)nnc21, the T/C (dose: 12.5 mg/kg/injection, schedule: Q01DX005 (ip), vehicle: saline with Tween-80) is reported as 97 % of control, the T/C (dose: 25.0 mg/kg/injection, schedule: Q01DX005 (ip), vehicle: saline with Tween-80) is reported as 97 % of control and the T/C [7] is reported as 100 % of control and 91 % of control. For the same molecule, the T/C [9] was 88 % of control.

With Cc1ccc(SCc2cn(C3CC(O)C(CO)O3)c(=O)[nH]c2=O)cc1 (stereo not given) the T/C (dose: 60.0 mg/kg/injection, schedule: Q01DX005 (ip), vehicle: Klucel (hydroxypropylcellulose) (HPC)) was 99 % of control, the T/C (dose: 120.0 mg/kg/injection, schedule: Q01DX005 (ip), vehicle: Klucel (hydroxypropylcellulose) (HPC)) was 95 % of control and the T/C (dose: 240.0 mg/kg/injection, schedule: Q01DX005 (ip), vehicle: Klucel (hydroxypropylcellulose) (HPC)) was 92 % of control.

With CCCSc1ncnc2nc(C)[nH]c12 the T/C (dose: 0.39 mg/kg/injection, schedule: Q01DX009 (ip), vehicle: saline with Tween-80) was 95 % of control, the T/C (dose: 0.78 mg/kg/injection, schedule: Q01DX009 (ip), vehicle: saline with Tween-80) was 92 % of control and the T/C (dose: 1.56 mg/kg/injection, schedule: Q01DX009 (ip), vehicle: saline with Tween-80) was 98 % of control. For the same molecule, the T/C (dose: 3.13 mg/kg/injection, schedule: Q01DX009 (ip), vehicle: saline with Tween-80) was 94 % of control.

Cc1ccc(S(=O)(=O)Oc2ccc3c(/C=C/[N+](=O)[O-])cn(C)c3c2)cc1 was tested, and the T/C (dose: 50.0 mg/kg/injection, schedule: Q01DX001 (ip), vehicle: Klucel (hydroxypropylcellulose) (HPC)) was 90 % of control, the T/C (dose: 100.0 mg/kg/injection, schedule: Q01DX001 (ip), vehicle: Klucel (hydroxypropylcellulose) (HPC)) was 86 % of control and the T/C (dose: 200.0 mg/kg/injection, schedule: Q01DX001 (ip), vehicle: Klucel (hydroxypropylcellulose) (HPC)) was 101 % of control.

With BrCc1ccc2c(c1)CCC2 the T/C (dose: 50.0 mg/kg/injection, schedule: Q01DX009 (ip), vehicle: distilled water + alcohol) was 106 % of control, the T/C (dose: 100.0 mg/kg/injection, schedule: Q01DX009 (ip), vehicle: distilled water + alcohol) was 113 % of control and the T/C (dose: 200.0 mg/kg/injection, schedule: Q01DX009 (ip), vehicle: distilled water + alcohol) was 97 % of control.

CC1C(c2ccccc2)NC(c2ccccc2)C(C)C1O (stereo not given) was tested, and the T/C [1] was 101 % of control, the T/C [2] was 98 % of control and the T/C [3] was 105 % of control.

In the case of CCC[C@@H](O)CC(=O)N[C@@H](CO)c1ccccc1, the T/C (dose: 60.0 mg/kg/injection, schedule: Q01DX005 (ip), vehicle: saline) is reported as 96 % of control, the T/C (dose: 120.0 mg/kg/injection, schedule: Q01DX005 (ip), vehicle: saline) is reported as 95 % of control and the T/C (dose: 240.0 mg/kg/injection, schedule: Q01DX005 (ip), vehicle: saline) is reported as 96 % of control.

In the case of COc1cccc(Cc2ccncc2)c1OC, the T/C (dose: 12.5 mg/kg/injection, schedule: Q01DX009 (ip), vehicle: water) is reported as 101 % of control, the T/C (dose: 25.0 mg/kg/injection, schedule: Q01DX009 (ip), vehicle: water) is reported as 100 % of control and the T/C (dose: 50.0 mg/kg/injection, schedule: Q01DX009 (ip), vehicle: water) is reported as 100 % of control. For the same molecule, the T/C (dose: 100.0 mg/kg/injection, schedule: Q01DX009 (ip), vehicle: water) was 102 % of control and the T/C (dose: 200.0 mg/kg/injection, schedule: Q01DX009 (ip), vehicle: water) was 103 % of control.

With CCOc1c(C)cc(Cc2ccc3c(c2)OCO3)cc1C the T/C [7] was 108 % of control, the T/C [8] was 101 % of control and the T/C [9] was 92 % of control.
